From US4788179A, “Method of treating amyotrophic lateral sclerosis with dipeptide derivatives and pharmaceutical compositions for use therein” (Gruenenthal GmbH, priority 1984, dated 1988)

Columns and labels:
[1] = system: amyotrophic lateral sclerosis (ALS) patients; assay: Clinical studies: treatment of ALS patients by infusion; type: in vivo, human
Description: The surprising activity of the compounds of formula I and of medicaments containing these ingredients in the treatment of ALS patients can be seen from the following examples of effects which resulted after administration of orotyl-L-histidyl-L-prolinamide in clinical studies. This active ingredient was filled in lyophilized form in 6 mg portions in bottles, closed with rubber stoppers, also containing 12 mg mannitol.
A patient with bulbar palsy caused by ALS was treated three times daily (at 4 hour intervals) on four consecutive days in form of short infusions (i.e. within 30 minutes) with the active ingredient. The total cumulative doses were on the first day 18 mg, on the second day 36 mg, on the third day 54 mg and on the fourth day 72 mg. The single doses for each infusion were dissolved in 100 ml of a sterile isotonic solution of sodium chloride.
Another ALS patient, suffering for eight months from ALS, was treated in the same manner as described above. […] For instance, they became able to lift their arms above horizontal, to walk without a stick, to climb stairs without support, and they became independent in activities of everyday life (such as shaving, washing, cutting with a knife, using a fork, writing, etc.).
Three other ALS patients, who had been ill for five, seven and twelve months, respectively, were each treated on four consecutive days three times daily with 24 mg of the active ingredient, dissolved in 5% aqueous glucose solution, by intravenous infusion, applied within 30 minutes. […] Again the observed side effects were insignificant and could be neglected.

[2] = system: amyotrophic lateral sclerosis (ALS) patients; assay: as above; type: in vivo, human; remark: listed apart in the source
[3] = Example 3: three ALS patients, 24 mg three times daily, four days, intravenous infusion

Question: Which “improvement in bulbar symptoms” value ([1]; Example 1: one patient with bulbar palsy caused by ALS, short infusions (30 minutes) three times daily on four consecutive days, daily totals 18, 36, 54, 72 mg) does the source give for `NC(=O)[C@@H]1CCCN1C(=O)[C@H](Cc1c[nH]cn1)NC(=O)c1cc(=O)[nH]c(=O)[nH]1` [orotyl-L-histidyl-L-prolinamide] here?
Answer: remarkable improvements in the bulbar symptoms

Question: What about the “persistence of improvement after medication ended” value ([1]; Example 1: patient with bulbar palsy, four-day infusion treatment) of the same compound?
Answer: remained for several days

Question: What about the “side effects of the treatment” value ([1]; Example 1: short infusions three times daily, four days, daily totals 18, 36, 54, 72 mg) of the same compound?
Answer: insignificant

Question: And the “persistence of improvement after therapy finished” value ([1]; Example 2: four days therapy, same regimen as Example 1)?
Answer: sustained for some days

Question: What about the “improvement in muscle weakness” value ([1]; Example 2: one patient suffering for eight months from ALS, same regimen as Example 1) of the same compound?
Answer: striking improvement in muscle weakness

Question: And the “improvement in everyday motor abilities” value ([1]; Example 3: three ALS patients, 24 mg three times daily on four consecutive days, intravenous infusion in 5% glucose within 30 minutes)?
Answer: Remarkable improvements were noted in using buttons and zippers and in the ability to walk without assistance

Question: And the clonic reflexes [1, 3]?
Answer: changed to normal

Question: What about the observed side effects [1, 3] of the same compound?
Answer: insignificant

Question: What about the “tendency to become fatigued” value [1, 3] of the same compound?
Answer: reduced

Question: And the “effect on hand musculature” value ([2]; Example 4: one ALS patient with pronounced atrophy of the hand muscles, total 18 mg on one day (infusions of 6 mg at four hour intervals))?
Answer: evident effect on the hand musculature

Question: And the “persistence of effect after ending of medication” value ([2]; Example 4: total 18 mg on one day by infusion)?
Answer: remained for some time
